In patent US20230286973A1, “PROTEIN SECRETION INHIBITORS” (KEZAR LIFE SCIENCES, priority 2020, published 2023):
Like-named read-outs stand apart in the source and are kept apart here.

Assays:
[1] = Liver Microsome Stability Assay (mouse); settings: mouse liver microsomes, with NADPH, 1.0 uM compound
Description: (§1) Stability of a compound was assessed in the presence of liver microsomes from various sources—mouse, rat, monkey and human liver microsomes. 1.0 uM compound, 0.4% DMSO in 0.1 M Potassium Phosphate with 1.0 mg/mL liver microsomes, were incubated at 37° C. with or without 1 mM NADPH. The samples were quenched at 0, and 30 minutes.

[2] = tested on: IL-2-FL/Gaussia Luciferase; assay: Dox Induced IL2-FL-Gluc Assay; format: cell-based; settings: for IC50: 24 hr Dox induction, 293FRT/TO cells, read-out: 24 hr Dox Inducible IL2FLGluc 293FRT/TO: Mean IC50; for 24 hr Dox Inducible IL2FLGluc 293FRT/TO: IL2/PD1: ratio of IL2FLGluc IC50 to PD1ssGluc IC50
Method in brief: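 A hygromycin- and blasticidin-resistant 293 T-REx clone carrying inducible IL-2–Gaussia luciferase (full-length IL-2, residues 1-153) serves as the cell system. After overnight plating, the cells get test compounds together with doxycycline in DMSO/media and are incubated at 37° C, 5% CO2.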

[3] = Liver Microsome Stability Assay (human); settings: human liver microsomes, with NADPH, 1.0 uM compound
Description: as §1

[4] = tested on: TNFα-FL/Gaussia Luciferase; assay: Dox Induced TNFα-FL-Gluc Assay; format: cell-based; settings: for IC50: 24 hr Dox induction, 293FRT/TO cells, read-out: 24 hr Dox Inducible TNFaFLGluc 293FRT/TO: Mean IC50; for 24 hr Dox Inducible TNFaFLGluc 293FRT/TO: TNF/PD1: ratio of TNFaFLGluc IC50 to PD1ssGluc IC50
Method in brief: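 Hygromycin/blasticidin-selected Flp-In 293 T-REx cells, TNFα-FL/Gaussia luciferase fusion under T-REx control; overnight plating, then compound in DMSO/media with doxycycline at 37 °C, 5% CO2; stereo-undefined structures tested as mixtures.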

[5] = Liver Microsome Stability Assay (rat); settings: rat liver microsomes, with NADPH, 1.0 uM compound
Description: as §1

[6] = Liver Microsome Stability Assay (monkey); settings: monkey liver microsomes, with NADPH, 1.0 uM compound
Description: as §1

[7] = tested on: HER3-ss+4aa/Gaussia Luciferase; assay: Dox-Induced Her3-ss-Gluc Assay; format: cell-based; settings: 24 hr Dox induction, 293FRT/TO cells, read-out: 24 hr Dox Inducible Her3(ss + 4)Gluc 293FRT/TO: Mean IC50
Method in brief: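 Doxycycline-inducible HER3 signal sequence+4aa/Gaussia luciferase construct, stably integrated in Flp-In 293 T-REx cells; compound dilutions applied with doxycycline at 37° C., 5% CO2.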

[8] = tested on: PD1-ss+10aa/Gaussia Luciferase; assay: Dox-Induced PD1-ss-Gluc Assay; format: cell-based; settings: 24 hr Dox induction, 293FRT/TO cells, read-out: 24 hr Dox Inducible PD1ssGluc 293FRT/TO: Mean IC50
Method in brief: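 Gaussia luciferase fused downstream of the PD1 signal peptide plus 10 residues was expressed on doxycycline induction in stably transfected Flp-In 293 T-REx cells. Compounds were added with doxycycline and incubated at 37 °C, 5% CO2.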

[9] = tested on: multiple myeloma cell line NCI-H929; assay: H929 Cell Viability Assay; format: cell-based, human; settings: Homo sapiens, NCI-H929, 48 h, NCI-H929 cells, Celltiter-Glo
Method in brief: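 A 48-hour compound treatment of cells in 10% FBS RPMI medium was followed by luciferase-based viability quantification.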

[10] = tested on: multiple myeloma cell line U266B1; assay: U266 Cell Viability Assay; format: cell-based, human; settings: Homo sapiens, U-266, 48 h, U266B1 cells, Celltiter-Glo
Method in brief: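 After growth in serum-supplemented RPMI 1640, cells received serially diluted compound in DMSO/media and were kept 48 hours before a CellTiter-Glo luminescence readout.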

Row | Compound | Liver Microsome Stability (Multiple Species): Mouse - % Remaining after 30 min w/NADPH [1] [%] | IC50 ([2]; mean) [nM] | 24 hr Dox Inducible IL2FLGluc 293FRT/TO: IL2/PD1 ([2]; '<=>' given where both are I.A.) | Liver Microsome Stability (Multiple Species): Human - % Remaining after 30 min w/NADPH [3] [%] | IC50 ([4]; mean) [nM] | Liver Microsome Stability (Multiple Species): Rat - % Remaining after 30 min w/NADPH [5] [%] | Liver Microsome Stability (Multiple Species): Monkey - % Remaining after 30 min w/NADPH [6] [%] | IC50 ([7]; mean) [nM] | IC50 ([8]; mean) [nM] | EC50 [9] [nM] | EC50 [10] [nM] | IC50 [2] [nM] | 24 hr Dox Inducible IL2FLGluc 293FRT/TO: IL2/PD1 [2] | IC50 [4] [nM] | 24 hr Dox Inducible TNFaFLGluc 293FRT/TO: TNF/PD1 [4] | IC50 [7] [nM] | IC50 [8] [nM]
1 | O=C(O)CCCCn1cccc1C(=O)Nc1nc([C@H]2CCCN2c2ccccc2)cs1 [Compound C11] | 52.3 | > 25000 | 1 | 65.2 | > 25000 | 83.1 | 76.1 | > 25000 | > 25000 | > 25000 | > 25000 |  |  |  |  |  | 
2 | CS(=O)(=O)N1CCC(Oc2ccc(N3CCC[C@@H]3c3csc(NC(=O)c4cccn4Cc4ccnc(F)c4)n3)cc2)CC1 [Compound A128, (R)-1-((2-fluoropyridin-4-yl)methyl)-N-(4-(1-(4-((1-(methylsulfonyl)piperidin-4-yl)oxy)phenyl)pyrrolidin-2-yl)thiazol-2-yl)-1H-pyrrole-2-carboxamide] | 25.5 |  |  | 28 |  | 31.3 | 4.62 |  |  | 847 | > 25000 | 59.6 | 1.6 | 495 | 13.1 | 68.1 | 37.9
3 | CC(=O)N1CCC(Oc2ccc(N3CCC[C@@H]3c3csc(NC(=O)c4cccn4Cc4ccnc(F)c4)n3)nc2)CC1 [Compound A154, (R)-N-(4-(1-(5-((1-acetylpiperidin-4-yl)oxy)pyridin-2-yl)pyrrolidin-2-yl)thiazol-2-yl)-1-((2-fluoropyridin-4-yl)methyl)-1H-pyrrole-2-carboxamide] | 18.3 |  |  | 1.29 |  | 16 | 0.22 |  |  | 1520 | > 25000 | 135 | 2.1 | 643 | 9.97 | 127 | 64.5
4 | Cc1cnc(/C=C/c2csc(NC(=O)c3cccn3Cc3ccncc3)n2)o1 [Compound B35, (E)-N-(4-(2-(5-methyloxazol-2-yl)vinyl)thiazol-2-yl)-1-(pyridin-4-ylmethyl)-1H-pyrrole-2-carboxamide] | 2.61 |  |  | 2.88 |  | 0.46 | 1.04 |  |  | > 25000 | > 25000 | > 25000 | >54 | > 25000 | >53.7 | > 25000 | 466
5 | CC(C)c1ccc(/C=C/c2csc(NC(=O)c3cccn3Cc3cccnc3)n2)nc1 [Compound B66, (E)-N-(4-(2-(5-isopropylpyridin-2-yl)vinyl)thiazol-2-yl)-1-(pyridin-3-ylmethyl)-1H-pyrrole-2-carboxamide] | 0.11 |  |  | 0.09 |  | 0.18 | 0.35 |  |  | 13400 | > 25000 | > 25000 | >1.6 | > 25000 | >1.61 | > 25000 | 15500
